Reference: US8017350B2, “Glimepiride- and insulin-induced glycosylphosphatidylinositol-specific phospholipase C regulation” (Sanofi-Aventis Deutschland GmbH, priority 2004, dated 2011)
Where two headings read alike, the source gives them in different places.

Assays:
[1] = cited from earlier work
[2] = tested on: GPI-proteins 5′-Nuc, Gce1 and aP in isolated rat adipocytes; test: localization of lipolytically cleaved and uncleaved GPI-proteins at hcDIGs, IcDIGs and total plasma membranes (TX-114 partitioning); assay type: cell-based; conditions: GPI-2350 50 μM, insulin 10 nM, glimepiride 20 μM; for 5′-Nuc amphiph IcDIGs / 5′-Nuc hydroph. IcDIGs / 5′-Nuc hydroph. hcDIGs / Gce1 amphiph IcDIGs / Gce1 hydroph. IcDIGs / Gce1 hydroph. hcDIGs / aP amphiph IcDIGs / aP hydroph. IcDIGs / aP hydroph. hcDIGs: amphiphilic version in hcDIGs of basal adipocytes set at 100; for 5′-Nuc hydroph. PM / Gce1 hydroph. PM / aP hydroph. PM: amphiphilic version in total plasma membranes of basal adipocytes set at 100; for 5′-Nuc amphiph hcDIGs / Gce1 amphiph hcDIGs / aP amphiph hcDIGs: basal set at 100
[3] = tested on: pp59Lyn and Gce1 interaction with caveolin-1 in rat adipocytes; test: dissociation of signaling proteins from caveolin (caveolin-1 immunoprecipitates of hcDIGs); assay type: cell-based; conditions: solubilized hcDIGs; FIG. 6
Experimental: Solubilized DIGs (see above, 5-20 μg protein) were precleared by incubation with protein A/G-Sepharose and subsequent centrifugation (10,000×g, 5 min). The supernatant was incubated with anti-caveolin-1 antibodies (1:1000) preadsorbed on protein A/G-Sepharose in 1 ml of 10 mM Tris/HCl (pH 7.4), 150 mM NaCl, 1% TX-100 for 1 h at 4° C. The immune complexes were washed twice with the same buffer and then twice with buffer lacking TX-100 and finally subjected to SDS-PAGE performed in the absence of β-mercaptoethanol. The recovery of immunoprecipitated caveolin was normalized by homologous immunoblotting with anti-caveolin antibodies of the same blot following stripping of the membrane.
Polypeptides separated by SDS-PAGE were transferred to polyvinylidene difluoride membranes using the semidry procedure as described in “Müller, G. et al., (2001) Mol. Cell. Biol. 21: 4553-4567”. Washed membranes were incubated with anti-caveolin-1 (1:2000), anti-pp59^Lyn (1:1250), anti-aP (1:500), anti-5′-Nuc (1:750) and anti-IRS-1 (1:2000) antibodies for 4 h at 15° C. Washed membranes were incubated with horseradish peroxidase-coupled secondary goat anti-mouse (1:2000) or goat anti-rabbit IgG (1:4000) antibodies. Labeled proteins were visualized by enhanced chemiluminescence.
FIG. 6: Effect of GPI-2350 on the glimepiride/insulin-induced dissociation of signaling proteins from caveolin. Isolated rat adipocytes were treated (5 min, 37° C.) without or with GPI-2350 (left panels, 50 μM; right panels, increasing conc.) and then incubated (120 min, 37° C.) in the absence or presence of insulin (10 nM) or glimepiride (20 μM). hcDIGs were prepared from the adipocytes and then solubilized. Caveolin-1 immunoprecipitates prepared from the solubilized hcDIGs were assayed for the presence of pp59^Lyn and Gce1 by immunoblotting and photoaffinity-labeling, respectively. […]

isolated rat adipocytes = test: isoproterenol-induced lipolysis measured as release of NBD-FA; assay type: cell-based
Experimental: Electroporation was performed as described in “Müller, G. et al., (2000) Mol. Cell. Biol. 20: 4708-4723”. Lipolysis was determined as release of glycerol or fluorescent NBD-FA from prelabeled and isoproterenol-stimulated adipocytes as described in “Müller, G. et al., (2003) Biochimie 85: 1245-1256”. Gce1 was detected by photolabeling of solubilized plasma membranes or hc/lcDIGs (10-50 μg protein) with 8-N3—[^32P]cAMP and subsequent phosphorimaging as described in “Müller, G. et al., (1994) Biochemistry 33: 12149-12159”. 5′-Nuc, aP and AChE activities were measured according to “Eliakim, R. et al., (1990) Biochim. Biophys. Acta 1355: 293-302”. Protein was determined using the BCA protein determination kit from Pierce (Rockford, Ill.) and BSA as calibration standard. SDS-PAGE was performed using precast gels (Novex, San Diego, Calif.; 10% Bis-Tris resolving gel, morpholinopropanesulfonic acid-SDS running buffer). Lumiimages were evaluated on a LumiImager using LumiImager software (Roche Diagnostics). Phosphor- and fluorescence images were processed and quantified using the Storm 860 PhosphorImager system (Molecular Dynamics, Gelsenkirchen, Germany). Figures were constructed using the ADOBE PHOTOSHOP software (Adobe Systems, Mountain View, Calif.).
FIG. 9: Isolated rat adipocytes were labeled with 0.5 mM NBD-FA (60 min, 37° C.), washed and then incubated (5 min, 37° C.) in the absence (Panels B, D) or presence of GPI-2350 (50 μM; Panels A, C) prior to challenge with increasing concentrations of glimepiride (Panels A, B) or insulin (Panels C, D). After further incubation (120 min, 37° C.) without or with isoproterenol (1 μM) as indicated, total cell suspensions were extracted with chloroform/heptane/methanol/0.1 N HCl (3/3/2/1, by vol.). The organic phases were analyzed by thin layer chromatography (diethylether/petrolether/acetic acid 78/22/1, by vol.) and fluorescence imaging in parallel with NBD-FA as marker. A typical experiment with 2 independent labelings and incubations is shown repeated once with similar results. TAG, triacylglycerol.

stability of compound 3 = assay type: physicochemical
[4] = tested on: trypanosomal GPI-PLC (T. brucei); conditions: literature; cited from earlier work

Compound	5′-Nuc amphiph IcDIGs [2] [arb. units]	5′-Nuc hydroph. IcDIGs [2] [arb. units]	5′-Nuc hydroph. hcDIGs [2] [arb. units]	Gce1 amphiph IcDIGs [2] [arb. units]	Gce1 hydroph. IcDIGs [2] [arb. units]	Gce1 hydroph. hcDIGs [2] [arb. units]	aP amphiph IcDIGs [2] [arb. units]	aP hydroph. IcDIGs [2] [arb. units]	aP hydroph. hcDIGs [2] [arb. units]	5′-Nuc hydroph. PM [2] [arb. units]	Gce1 hydroph. PM [2] [arb. units]	aP hydroph. PM [2] [arb. units]	5′-Nuc amphiph hcDIGs [2] [arb. units]	Gce1 amphiph hcDIGs [2] [arb. units]	aP amphiph hcDIGs [2] [arb. units]	induced maximal losses of pp59Lyn and Gce1 from caveolin-1 immunoprecipitates [3]	inhibition in words [4]	other results
CCC1=C(C)CN(C(=O)NCCc2ccc(S(=O)(=O)NC(=O)N[C@H]3CC[C@H](C)CC3)cc2)C1=O [Glimepiride, glimepiride]	59 ± 9	9 ± 3	48 ± 10	79 ± 15	12 ± 5	69 ± 9	49 ± 8	10 ± 2	88 ± 19	19 ± 5	40 ± 11	54 ± 12	35 ± 10	25 ± 10	10 ± 3	75-85%		time of greatest blood glucose lowering effects after the dose ([1]; human, in vivo): ≤ 4 h; hypoglycaemia, patients ([1]; receiving concomitant insulin for 6 months): ≤ 50%; IC50 (isolated rat adipocytes; Rattus norvegicus, Adipocyte, isoproterenol-induced adipocytes, FIG. 9, read-out: IC50 for reduction of NBD-FA release): 3000 nM; reduction of NBD-FA release in the presence of inhibitor (isolated rat adipocytes; in the presence of 50 μM glimepiride (so in the source), Panels A, B): completely abrogated
CCCCCCCCCCCCP1(=O)OC2C(O)C(O)C(O)C(O)C2O1 (racemic) [GPI-2350, myo-inositol-1,2-cyclo-dodecylphosphonic acid]																		stability as dried amorphous solid (stability of compound 3; 4° C.): dried amorphous solid for years; stability in methanol (stability of compound 3; methanol): stable in methanol for days
CCCCCCCCCCCCP(=O)(O)O[C@@H]1[C@H](O)[C@H](O)[C@@H](O)[C@H](O)[C@H]1O[C@H]1O[C@H](CO)[C@@H](O)[C@H](O)[C@H]1N [GMI-1-dodecylphosphonate]																	considerably more inhibitory than the corresponding hexyl derivative	
N[C@H]1[C@@H](O[C@@H]2[C@@H](O)[C@H](O)[C@@H](O)[C@H]3OP(=O)(O)O[C@H]32)O[C@H](CO)[C@@H](O)[C@@H]1O [glucosamine (α1→6)-inositol-1,2-cyclic phosphate]																	better inhibitor than GMI-1-phosphate	
Insulin: Human recombinant insulin	28 ± 4	7 ± 2	34 ± 8	35 ± 9	19 ± 5	58 ± 12	27 ± 5	4 ± 2	69 ± 8	14 ± 5	29 ± 7	31 ± 6	81 ± 17	64 ± 8	44 ± 7	35-45%		IC50 (isolated rat adipocytes; absence of GPI-2350, read-out: apparent IC50 for inhibition of NBD-FA release): 100 nM; IC50 (isolated rat adipocytes; presence of GPI-2350 (50 μM), read-out: apparent IC50 for inhibition of NBD-FA release): 300 nM
CCCCCCCCCCCCOP(=O)(O)OC1C(O)C(O)C(O)C(O)C1O (stereo not shown) [myo-inositol-1-O-dodecylphosphate]																	inhibit the trypanosomal GPI-PLC	
